The source of these data is PMC7824209, “Bioactive Bis(indole) Alkaloids from a Spongosorites sp. Sponge” (Marine Drugs, 2020).

One assay relates to S. aureus strain Newman. The assay can be described thus: Antibacterial activity MIC. In kind it is cell-based. To be noted: Staphylococcus aureus; Gram-positive; strain Newman; read-out: Antibacterial Activity MIC, S. aureus.
Assay [1] relates to Enterococcus faecalis ATCC19433. Nature of the assay: Antibacterial activity MIC. The class given is cell-based. As to conditions: Gram-positive, ATCC19433, read-out: Antibacterial Activity MIC, Enterococcus faecalis.
Assay [2] relates to Enterococcus faecium ATCC19434. The assay can be described thus: Antibacterial activity MIC. In kind it is cell-based. To be noted: Gram-positive, ATCC19434, read-out: Antibacterial Activity MIC, Enterococcus faecium.
The subject of assay [3] is Klebsiella pneumoniae ATCC10031. The assay can be described thus: Antibacterial activity MIC. The class given is cell-based. As to conditions: Gram-negative, ATCC10031, read-out: Antibacterial Activity MIC, Klebsiella pneumonia.
The test system of assay [4] is Salmonella enterica ATCC14028. The assay can be described thus: Antibacterial activity MIC. In kind it is cell-based. As to conditions: Gram-negative, ATCC14028, read-out: Antibacterial Activity MIC, Salmonella enterica.
Assay [5] relates to Escherichia coli ATCC25922. Nature of the assay: Antibacterial activity MIC. To be noted: Gram-negative; for MIC: Escherichia coli, read-out: Antibacterial Activity MIC, E. coli. The class given is cell-based.
For assay [6], the target named is T1, recombinant SrtA from S. aureus ATCC6538p (Staphylococcus aureus, UniProt Q2FV99).
T1 construct: made in house; host or cells: Escherichia coli
Nature of the assay: SrtA inhibition assay (fluorescence, dabcyl-LPETG-edans cleavage). In kind it is biochemical. An excerpt:
The same bioassays were pursued with the new compounds and the known congeners, with a particular emphasis on SrtA inhibition. The rationale of SrtA inhibition is that this transpeptidase decorates the surfaces of Gram-positive bacteria with a diverse array of proteins that enable microbes to effectively interact with their environment, and it is not required for bacterial growth or viability. It is thus considered a promising target for the development of anti-virulence drugs aimed at interfering with important virulence mechanisms such as adhesion to host tissues. To assess the SrtA inhibitory activity of compounds 1–14, recombinant SrtA derived from S. aureus ATCC6538p was purified from Escherichia coli extracts using metal chelate-affinity chromatography. The enzyme activity was determined from the fluorescence intensity upon cleavage of a peptide substrate containing the LPETG motif.
Before evaluating the SrtA inhibitory activity of the test compounds, recombinant SrtA from S. aureus ATCC6538p was prepared according to methods described in a previous paper. The SrtA inhibitory activity of the test compounds was determined according to previously described methods with minor modifications. The reaction was carried out with 100 μL buffer (50 mM Tris-HCl, 5 mM CaCl2, and 150 mM NaCl, pH 7.5), 7.5 µM synthetic peptide dabcyl-LPETG-edans (AnaSpec, Inc., Fremont, CA, USA), 7.5 µM purified SrtA, and test samples at various concentrations. […] The SrtA inhibition assay was conducted at 37 °C for 1 h, and inhibition was quantified fluorometrically using a microplate reader (FLx800, BioTek Instruments, Winooski, VT, USA) at excitation and emission wavelengths of 350 and 495 nm, respectively. Berberine chloride and triphasiol were used as reference inhibitors of SrtA.

Another assay deals with A549 cell line. The assay can be described thus: MTT cytotoxicity assay. To be noted: Homo sapiens; MTT assay, A549; read-out: IC50 A549. In kind it is cell-based. The protocol: (§1) An MTT assay was performed as previously described to determine the cytotoxicity against A549 and K562 cell lines. These cancer cell lines were purchased from the Korean Cell Line Bank (KCLB), Seoul, Republic of Korea.

In the next assay the test system is K562 cell line. Nature of the assay: MTT cytotoxicity assay. To be noted: Homo sapiens; MTT assay, K562; read-out: IC50 K562. The class given is cell-based. The protocol:
as §1
(Formazan colour is commonly taken as a measure of viable cells.)

Assay [7] relates to Candida albicans ATCC10231. Nature of the assay: Antifungal activity MIC. The class given is cell-based.
Assay [8] has as its system Aspergillus fumigatus HIC6094. Nature of the assay: Antifungal activity MIC. The class given is cell-based.
For assay [9], the system named is Trichophyton rubrum NBRC9185. Nature of the assay: Antifungal activity MIC. The class given is cell-based.
The test system of assay [10] is Trichophyton mentagrophytes IFM40996. The assay can be described thus: Antifungal activity MIC. The class given is cell-based.

Values after ≈ are worked out from the molar mass of the structure shown. Like-named read-outs stand apart in the source and are kept apart here. Where only a bound is given, the exact number is not on record here.

T1 sequence (Q2FV99 whole entry): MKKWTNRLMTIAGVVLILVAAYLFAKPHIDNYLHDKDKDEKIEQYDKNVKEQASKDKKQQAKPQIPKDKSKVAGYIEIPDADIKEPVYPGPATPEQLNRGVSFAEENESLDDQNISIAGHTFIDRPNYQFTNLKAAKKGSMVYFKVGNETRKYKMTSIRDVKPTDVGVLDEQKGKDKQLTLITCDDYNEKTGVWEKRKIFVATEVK

Consider `O=C1NC(c2c[nH]c3cc(Br)ccc23)CN=C1c1c[nH]c2ccccc12` (stereo in doubt) [Compound 11, (R)-6′′-debromohamacanthin A], for which the MIC is 8 µg/mL (≈ 19.6 µM) in the assay with S. aureus strain Newman; 32 µg/mL (≈ 78.6 µM) in assay [1]; 32 µg/mL (≈ 78.6 µM) in assay [2]; 8 µg/mL (≈ 19.6 µM) in assay [3]; 16 µg/mL (≈ 39.3 µM) in assay [4]; more than 128 µg/mL in [5]. The MIC in assay [7], in assay [8], in assay [9] and in assay [10] was more than 128 µg/mL throughout. Further, the “Antibacterial Activity MIC, E. coli” value in assay [5] is more than 128 µg/mL. Besides, the IC50 is 47.5 µM in assay [6], 39.6 µM in the assay on A549 cell line and more than 100 µM in the assay on K562 cell line.

With `CO[C@@]1(C(=O)c2c[nH]c3cc(O)ccc23)N=C(c2c[nH]c3ccccc23)C(=O)N1` [Compound 1, spongosoritin A], the MIC (with S. aureus strain Newman; in assay [1]; in [2]; in [3]; in assay [4]; in assay [5]) was more than 128 µg/mL each time. For the same compound, the MIC in [7], in assay [8], in assay [9] and in assay [10] was more than 128 µg/mL throughout. Besides, the IC50 in assay [6] was more than 330 µM; in the assay with A549 cell line it was 77.3 µM; with K562 cell line it was 24.2 µM.

On to `CO[C@@]1(C(=O)c2c[nH]c3ccccc23)N=C(c2c[nH]c3ccccc23)C(=O)N1` [Compound 2, spongosoritin B], for which the MIC in the assay with S. aureus strain Newman was 64 µg/mL (≈ 172 µM); in [1], more than 128 µg/mL; in assay [2] it was more than 128 µg/mL; in [3], 128 µg/mL (≈ 344 µM); in [4], 128 µg/mL (≈ 344 µM); in assay [5], more than 128 µg/mL. Besides, the MIC in [7], in assay [8], in [9] and in assay [10] was more than 128 µg/mL each time. The IC50 in assay [6] came out at 62.7 µM; with A549 cell line, 55.7 µM; in the assay with K562 cell line, 28.5 µM.

Regarding `CO[C@@]1(C(=O)c2c[nH]c3ccccc23)N=C(c2c[nH]c3cc(Br)ccc23)C(=O)N1` [Compound 3, spongosoritin C], the MIC in the assay on S. aureus strain Newman was 32 µg/mL (≈ 70.9 µM); in assay [1], 128 µg/mL (≈ 284 µM); in assay [2] it was more than 128 µg/mL; in [3], more than 128 µg/mL; in assay [4], 64 µg/mL (≈ 142 µM); in assay [5], more than 128 µg/mL. Moreover, the MIC in assay [7], in assay [8], in assay [9] and in assay [10] was more than 128 µg/mL each time. The IC50 in assay [6] is 43.9 µM; in the assay with A549 cell line it was 61.2 µM; with K562 cell line, 37.7 µM.

Regarding `CO[C@@]1(C(=O)c2c[nH]c3cc(O)ccc23)N=C(c2c[nH]c3cc(Br)ccc23)C(=O)N1` [Compound 4, spongosoritin D], the MIC was 16 µg/mL (≈ 34.2 µM) with S. aureus strain Newman; 128 µg/mL (≈ 274 µM) in assay [1]; 128 µg/mL (≈ 274 µM) in assay [2]; more than 128 µg/mL in assay [3]; 64 µg/mL (≈ 137 µM) in assay [4]; more than 128 µg/mL in assay [5]. The MIC in assay [7], in [8], in [9] and in [10] was more than 128 µg/mL throughout. In addition, the results for the IC50 (in assay [6]; with A549 cell line; in the assay with K562 cell line) were more than 275 µM, 70.9 µM and 54.2 µM, respectively.

As to `O=C(NCC(=O)c1c[nH]c2ccccc12)NC(=O)c1c[nH]c2cc(O)ccc12` [Compound 5, spongocarbamide A], the MIC (in the assay on S. aureus strain Newman; in assay [1]; in [2]; in [3]; in assay [4]; in [5]) was more than 128 µg/mL throughout. The MIC in [7], in assay [8], in [9] and in [10] was more than 128 µg/mL each time. In addition, the IC50 was 79.4 µM in assay [6], more than 100 µM in the assay with A549 cell line and 92.8 µM in the assay on K562 cell line.

Turning to `O=C(NCC(=O)c1c[nH]c2cc(Br)ccc12)NC(=O)c1c[nH]c2cc(O)ccc12` [Compound 6, spongocarbamide B], the MIC in the assay with S. aureus strain Newman is 64 µg/mL (≈ 141 µM); in [1], more than 128 µg/mL; in assay [2], more than 128 µg/mL; in assay [3], more than 128 µg/mL; in [4] it was 128 µg/mL (≈ 281 µM); in assay [5], more than 128 µg/mL. The MIC in [7], in [8], in assay [9] and in assay [10] was more than 128 µg/mL in each case. The IC50 is 52.4 µM in assay [6], more than 100 µM in the assay on A549 cell line and more than 100 µM in the assay with K562 cell line.

Turning to `O=C(c1nc(-c2c[nH]c3ccccc23)c[nH]1)c1c[nH]c2cc(O)ccc12` [Compound 7, topsentin], the MIC is 32 µg/mL (≈ 93.5 µM) with S. aureus strain Newman; 64 µg/mL (≈ 187 µM) in assay [1]; 64 µg/mL (≈ 187 µM) in [2]; 64 µg/mL (≈ 187 µM) in assay [3]; 64 µg/mL (≈ 187 µM) in assay [4]; more than 128 µg/mL in [5]. The MIC in assay [7], in assay [8], in [9] and in assay [10] was more than 128 µg/mL in each case. The “Antibacterial Activity MIC, E. coli” value in assay [5] is more than 128 µg/mL. Further, the half-inhibitory concentration (IC50) in assay [6] is more than 374 µM; with A549 cell line, 25.3 µM; in the assay on K562 cell line, 15.3 µM.

For `O=C(c1ncc(-c2c[nH]c3ccccc23)[nH]1)c1c[nH]c2cc(Br)ccc12` [Compound 8, isobromodeoxytopsentin], the IC50 in [6] stood at 41.3 µM.

In the case of `O=C(c1ncc(-c2c[nH]c3cc(Br)ccc23)[nH]1)c1c[nH]c2ccccc12` [Compound 9, bromodeoxytopsentin], the half-maximal inhibitory concentration (IC50) in assay [6] worked out at 34 µM.

For the compound `O=C(c1nc(-c2c[nH]c3cc(Br)ccc23)c[nH]1)c1c[nH]c2cc(O)ccc12` [Compound 10, bromotopsentin], the MIC was 8 µg/mL (≈ 19 µM) with S. aureus strain Newman; 32 µg/mL (≈ 76 µM) in assay [1]; 16 µg/mL (≈ 38 µM) in [2]; 64 µg/mL (≈ 152 µM) in assay [3]; 16 µg/mL (≈ 38 µM) in assay [4]; more than 128 µg/mL in assay [5]. In addition, the MIC in assay [7], in assay [8], in [9] and in [10] was more than 128 µg/mL each time. Further, the “Antibacterial Activity MIC, E. coli” value in [5] is more than 128 µg/mL. Further, the IC50 in assay [6] was determined as 53.2 µM; in the assay on A549 cell line, 38.9 µM; in the assay with K562 cell line, 43.2 µM.

Consider `CC1(C)S[C@@H]2[C@H](NC(=O)[C@H](N)c3ccccc3)C(=O)N2[C@H]1C(=O)O` [ampicillin, reference compound], for which the MIC in the assay on S. aureus strain Newman came to 0.13 µg/mL (≈ 0.372 µM); in [1] it was 0.5 µg/mL (≈ 1.43 µM); in assay [2], 1 µg/mL (≈ 2.86 µM); in [4], 0.25 µg/mL (≈ 0.715 µM); in assay [5], 8 µg/mL (≈ 22.9 µM).

Regarding `COc1ccc2cc3[n+](cc2c1OC)CCc1cc2c(cc1-3)OCO2` [berberine chloride, reference compound], in assay [6], the IC50 stood at 87.4 µM.

In the case of `COc1cccc2c1C(=O)c1c(O)c3c(c(O)c1C2=O)C[C@@](O)(C(=O)CO)C[C@@H]3O[C@H]1C[C@H](N)[C@H](O)[C@H](C)O1` [doxorubicin, reference compound], the IC50 in the assay with A549 cell line was determined as 0.64 µM; with K562 cell line, 0.92 µM.

Take `CN(C)[C@@H]1C(O)=C(C(N)=O)C(=O)[C@@]2(O)C(O)=C3C(=O)c4c(O)cccc4[C@@](C)(O)[C@H]3C[C@@H]12` [tetracycline, reference compound]: the MIC in assay [3] worked out at 0.25 µg/mL (≈ 0.563 µM).

On to `CC(C)C(=O)Cc1c(OCC(O)C(C)(C)O)ccc2ccc(=O)oc12` (stereo not drawn) [triphasiol, reference compound], for which the IC50 in assay [6] (7.5 µM SrtA, 7.5 µM dabcyl-LPETG-edans, 37 °C, 1 h, pH 7.5, read-out: IC50 Srt A) is 37.9 µM.

For orientation: MIC means the lowest concentration found to suppress growth. A word on the IC50: it is the midpoint of a concentration-inhibition curve.
